The values that follow come from US20240327446A1, “DEUTERATED NUCLEOSIDE COMPOUNDS AND USE THEREOF” (MEDSHINE DISCOVERY INC., priority 2022, published 2024).

Data set [1] concerns human coronavirus (HCoV) 229E. In words: In vitro anti-coronavirus activity test, cytopathic effect (CPE) assay. In kind it is cell-based, human coronavirus (HCoV) 229E in MRC5 cells. To be noted: MRC5, 72 h, read-out: EC50 (median effective concentration). The method, then: (§1) To detect the in vitro anti-human coronavirus (HCOV) 229E activity of the compound using the cytopathic effect (CPE) assay, and simultaneously evaluate the cytotoxicity of the compound.
(§2) The test compound was prepared as a 20 mM stock solution using DMSO. The initial testing concentration of the test compound was 50 μM, tested at 8 concentrations with 4-fold gradient dilutions, in duplicate wells. The control compound Remdesivir would be provided by WuXi AppTec. Remdesivir would be tested at 8 concentrations with 3-fold gradient dilutions, in duplicate wells.
(§3) MRC5 cells and coronavirus HCoV 229E were purchased from ATCC. MRC5 cells were cultured in EMEM (Sigma) culture medium supplemented with 10% fetal bovine serum (Excell), 1% double antibiotic (Hyclone), 1% L-glutamine (Gibco), and 1% non-essential amino acids (Gibco). […]
(§4) Cells were seeded in a 96-well microplate at a specific density (Table 1) and cultured overnight in a 5% CO2, 37° C. incubator. […] Cell viability was detected using the CellTiter Glo (Promega) cell viability assay kit. […]
Inhibition rate (%)=(test well reading value−average value of virus control)/(average value of cell control−average value of virus control)×100 […]

Data set [2] is described as follows: in vitro. In kind it is cell-based. Conditions: human. The method, then: as §1, §2, §3, §4
Cell viability (%)=(test well reading value−average value of culture medium control)/(average value of cell control−average value of culture medium control)×100 […]

Structures are written as SMILES.

With `[2H][C@@]1(O)[C@H](O)[C@@H](COC(=O)C(C)C)O[C@@]1(C#N)c1ccc2c(N)ncnn12` [Compound 1], in data set [1], the EC50 is 220 nM. The cytotoxic concentration (CC50) – broadly, the concentration giving 50% cytotoxicity – at 3 days in data set [2] is greater than 50000 nM.
